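Step 1: Grow cells in 96-well plates. Step 2: Expose to compound for 48 hours at 5 concentrations. Step 3: Interpolate endpoints linearly; if unreached, use highest concentration. Abbreviation: GI50, concentration required for 50% inhibition of growth. TGI denotes the concentration required for complete inhibition of growth.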
Legend:
Test in all cases: NCI tumour cell line growth inhibition, 48 h
TK-10 renal = tested on: TK-10 renal
LOX IMVI melanoma = tested on: LOX IMVI melanoma
HS 578T breast = tested on: HS 578T breast
DMS 273 small cell lung = tested on: DMS 273 small cell lung
DMS 114 small cell lung = tested on: DMS 114 small cell lung
HOP-18 NSCLC = tested on: HOP-18 NSCLC
P388/ADR leukemia = tested on: P388/ADR leukemia
P388 leukemia = tested on: P388 leukemia
SNB-78 CNS = tested on: SNB-78 CNS
SN12K1 renal = tested on: SN12K1 renal
M19-MEL melanoma = tested on: M19-MEL melanoma
KM20L2 colon = tested on: KM20L2 colon
LXFL 529 NSCLC = tested on: LXFL 529 NSCLC
XF 498 CNS = tested on: XF 498 CNS
DLD-1 colon = tested on: DLD-1 colon
RXF-631 renal = tested on: RXF-631 renal

Row | SMILES | TGI (TK-10 renal) [µM] | TGI (LOX IMVI melanoma) [µM] | TGI (HS 578T breast) [µM] | further results
1 | CN(c1c(Cl)cccc1Cl)S(=O)(=O)c1ccccc1[N+](=O)[O-] | > 100 | > 100 | > 100 | –
2 | CCN(CC)CCN1C(=O)c2cccc3c(-c4ccc5c(c4)ncn5C4CCCCC4)ccc(c23)C1=O | 4.39 | – | – | GI50 (TK-10 renal): 1.76 µM
3 | O=C1/C(=C/c2ccc(O)cc2)NC(=S)N1CN1CCCCC1 | > 100 | > 100 | > 100 | –
4 | COC(=O)C12CCC(C(=O)OC)(Cc3c(c4ccccc4n3S(=O)(=O)c3ccccc3)C1)C2=O (stereo not drawn) | > 100 | > 100 | > 84.7 | –
5 | CSCCC(NC(=O)C(Cc1ccccc1)NC(=O)CNC(=O)CNC(=O)C(N)Cc1ccc(O)cc1)C(=O)O (stereo not drawn) | – | > 100 | – | TGI (DMS 273 small cell lung): > 100 µM; TGI (DMS 114 small cell lung): > 100 µM; TGI (HOP-18 NSCLC): > 100 µM; TGI (P388/ADR leukemia): > 100 µM; TGI (P388 leukemia): > 100 µM; TGI (SNB-78 CNS): > 100 µM; TGI (SN12K1 renal): > 100 µM; TGI (M19-MEL melanoma): > 100 µM; TGI (KM20L2 colon): > 29 µM
6 | CC1=NN(c2nc(N)nc(CS(C)(=O)=O)n2)C(C)(C)C1 | > 100 | > 100 | > 100 | –
7 | O=C(N/N=C(/COc1cccc(Cl)c1)N=Cc1ccncc1)c1ccncc1 | > 100 | > 100 | > 100 | –
8 | COC(=O)N1CC[C@@H]2CCC=C(c3cccc4c3OCO4)[C@@H]21 | > 100 | > 100 | > 100 | –
9 | Clc1cc2nc(C3CCCO3)[nH]c2cc1Cl (stereo not drawn) | > 100 | > 100 | > 100 | –
10 | Oc1c(C(O)(c2ccccc2)c2ccc3ccccc3c2O)ccc2ccccc12 | 26.8 | 31.3 | 27.8 | –
11 | O=C(N=Nc1ccc([N+](=O)[O-])cc1)NNc1ccc([N+](=O)[O-])cc1 | 53.6 | 24.4 | – | –
12 | CCOC(=O)/C(C(=S)NC)=C(/N)N1CCCC1 | > 100 | > 100 | > 100 | –
13 | CCN(CC)CCN1c2ccccc2Sc2ccc3ccccc3c21 | 23.9 | 21.4 | 32.6 | –
14 | CSC1=N/C(=C\c2cccs2)C(=O)N1CN1CCOCC1 | > 100 | > 100 | > 100 | –
15 | CC(C)(C)OC(=O)N1C(C2=COc3ccccc3O2)=COc2ccccc21 | > 100 | 37.3 | > 100 | –
16 | ON=C1CCCCC(=NO)CCCC1 | > 100 | > 100 | > 100 | –
17 | O=C(CC(=O)c1ccncc1)c1ccccc1 | > 100 | > 100 | > 100 | –
18 | COCCO | – | > 100 | – | TGI (P388/ADR leukemia): > 100 µM; TGI (P388 leukemia): > 100 µM; TGI (SN12K1 renal): > 100 µM; TGI (KM20L2 colon): > 100 µM

Row | SMILES | TGI (TK-10 renal) [µM] | TGI (LOX IMVI melanoma) [µM] | TGI (HS 578T breast) [µM] | further results
19 | C=C1CC(OC(C)=O)/C=C(/C)CCC(C(C)(C)O)CC1O (stereo not drawn) | > 100 | > 100 | > 100 | –
20 | CCOC(=O)C(SCCO)C(C(=O)OCC)n1ccc(N)nc1=O (stereo not drawn) | > 100 | > 100 | > 100 | –
21 | COc1ccc(C2CCc3nc4nc(N)nc(N)c4cc3C2)cc1 (stereo not drawn) | 24.9 | 30 | > 100 | –
22 | COc1ccc2nc(-c3ccc(OC(=O)N(C)C)cc3)cn2c1 | > 100 | > 100 | > 100 | –
23 | O=[N+]([O-])c1cc2n[nH]nc2c2nonc12 | > 100 | > 100 | 58.8 | –
24 | CCN(CC)CCNc1ccc([N+](=O)[O-])c2nc3ccccc3c(N)c12 | > 10 | 1.61 | 1.83 | –
25 | CN(C)c1nc(N(C)C)nc(N(C)CN(C)c2ccccc2)n1 | > 100 | > 100 | – | TGI (DMS 114 small cell lung): > 100 µM; TGI (HOP-18 NSCLC): > 100 µM; TGI (SNB-78 CNS): > 100 µM; TGI (M19-MEL melanoma): > 100 µM; TGI (LXFL 529 NSCLC): > 100 µM; TGI (XF 498 CNS): > 100 µM
26 | NC(=O)c1cnc2sc3ccccc3n2c1=O | > 100 | > 100 | > 100 | –
27 | CCCS(=O)(=O)O | > 100 | > 100 | > 100 | –
28 | Cc1ccc2nc3c(C(=O)NCCN(C)C)cccc3cc2c1 | – | 6.4 | – | TGI (DMS 273 small cell lung): 6.02 µM; TGI (DMS 114 small cell lung): 5.32 µM; TGI (HOP-18 NSCLC): 5.76 µM; TGI (P388/ADR leukemia): 4.69 µM; TGI (SNB-78 CNS): 15 µM; TGI (SN12K1 renal): 3.35 µM; TGI (M19-MEL melanoma): 4.66 µM; TGI (KM20L2 colon): 5.58 µM; TGI (XF 498 CNS): 3.67 µM; TGI (DLD-1 colon): 8.85 µM
29 | Cc1nn2c(N)cc(=O)nc2nc1/C=C/c1ccc(N(C)C)cc1 | > 100 | 22 | > 100 | –
30 | O=C1C(NS(=O)(=O)c2ccccc2)=C(n2cnc3ccccc32)C(=O)c2ccccc21 | > 100 | > 100 | > 100 | –
31 | C=CCCCCOC1C=CC(OC(C)=O)C(COC(C)=O)O1 (stereo not drawn) | > 100 | > 100 | > 100 | –
32 | CSc1ccc2c(c1)c(CCN)c(C)n2Cc1ccc(Cl)c(Cl)c1 | 2.95 | – | 4.8 | GI50 (TK-10 renal): 1.51 µM; GI50 (HS 578T breast): 2.05 µM
33 | N#CS/C(C(Cl)=C(Cl)Cl)=C(/Cl)[N+](=O)[O-] | 4.66 | 2.37 | > 61.4 | –
34 | N#CC12COC3(CCCCC3C1(C#N)C#N)OC2=N (stereo not drawn) | 31.6 | 30.3 | 44.7 | –
35 | NCCCNCCSSCc1ccccc1CSSCCNCCCN | > 100 | > 100 | – | TGI (DMS 273 small cell lung): > 100 µM; TGI (DMS 114 small cell lung): > 100 µM; TGI (HOP-18 NSCLC): > 100 µM; TGI (RXF-631 renal): > 100 µM; TGI (SNB-78 CNS): > 100 µM; TGI (M19-MEL melanoma): > 100 µM; TGI (LXFL 529 NSCLC): > 100 µM; TGI (KM20L2 colon): > 100 µM; TGI (XF 498 CNS): > 100 µM; TGI (DLD-1 colon): > 100 µM
36 | CCCCCCCCCc1cc(O)c(O)cc1CCCCCCCCC | > 10 | > 10 | > 10 | –
